From patent publication US20100152252A1, “Heterocyclyl-substituted-ethylamino-phenyl derivatives, their preparation and use as medicaments” (LABORATORIOS DEL DR. ESTEVE,S.A., priority 2006, published 2010) come the findings set out here.

Molecules are shown by their SMILES.

T1 sequence (P34969 whole entry): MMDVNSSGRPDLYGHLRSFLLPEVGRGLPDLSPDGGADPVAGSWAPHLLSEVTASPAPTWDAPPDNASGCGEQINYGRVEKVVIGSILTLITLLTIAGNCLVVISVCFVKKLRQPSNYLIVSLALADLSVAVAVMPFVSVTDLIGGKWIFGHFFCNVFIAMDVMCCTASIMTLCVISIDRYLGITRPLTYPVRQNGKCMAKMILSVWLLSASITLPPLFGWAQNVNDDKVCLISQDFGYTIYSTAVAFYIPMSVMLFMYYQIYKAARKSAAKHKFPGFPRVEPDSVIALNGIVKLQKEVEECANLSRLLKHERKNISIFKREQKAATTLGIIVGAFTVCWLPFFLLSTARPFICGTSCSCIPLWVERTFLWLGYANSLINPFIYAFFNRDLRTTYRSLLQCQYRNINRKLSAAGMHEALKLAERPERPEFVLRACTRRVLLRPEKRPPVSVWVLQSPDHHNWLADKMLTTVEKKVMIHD

One assay has as its target T1, Cloned Human Serotonin Receptor, Subtype 7 (h5HT7) (Homo sapiens, UniProt P34969).
T1 construct: purchased PerkinElmer 6120512; host or cells: CHO cells
The assay can be described thus: Radioligand binding, [125I]LSD, h5HT7 expressed in CHO cells.
Conditions: not given
As to the method:
Radioligand binding assays were performed using the Cloned Human Serotonin Receptor, Subtype 7 (h5HT7), expressed in CHO cells, coated on Flashplate (Basic FlashPlate Cat.: SMP200) from PerkinElmer (Cat.: 6120512). The protocol assay was essentially the recommended protocol in the Technical Data Sheet by PerkinEmer Life and Analytical Sciences. The Mass membrane protein/well was typically […] and the Receptor/well was about 9-10 fmoles. The Flashplate were let equilibrate at room temperature for one hour before the addition of the components of the assay mixture. The binding buffer was: 50 mM Tris-HCl, pH 7.4, containing 10 mM MgCl2, 0.5 mM EDTA and 0.5% BSA. The radioligand was [^125I]LSD at a final concentration of 0.82 nM. Nonspecific binding was determined with 50 μM of Clozapine. The assay volume was 25 μl. TopSeal-A were applied onto Flashplate microplates and they were incubated at room temperature for 240 minutes in darkness. The radioactivity were quantified by liquid scintillation spectrophotometry (Wallac 1450 Microbeta Trilux) with a count delay of 4 minutes prior to counting and a counting time of 30 seconds per well. Competition binding data were analyzed by using the LIGAND program (Munson and Rodbard, LIGAND: A versatile, computerized approach for characterization of ligand-binding systems. Anal. Biochem. 107: 220-239, 1980) and assays were performed in triplicate determinations for each point.
By IC50 is commonly meant the concentration at which inhibition is half-maximal. As for `COc1ncccc1-c1cccc(CCN(C)C)c1` [Example 36, {2-[3-(2-Methoxy-pyridin-3-yl)-phenyl]-ethyl}-dimethyl-amine], the IC50 worked out at 0.303 µM.
`Cc1cccc(C)c1-c1cccc(CCN(C)C)c1` [Example 9, [2-(2′,6′-Dimethyl-biphenyl-3-yl)-ethyl]-dimethyl-amine] displayed an IC50 of 0.0101 ± 0.0008 µM.
`CN(C)CCc1cccc(-c2c(Cl)cccc2Cl)c1` [Example 34]: the IC50 is 0.005 ± 0.0017 µM.
Consider `CN(C)CCc1cccc(-c2c(F)cccc2F)c1` [Example 35, [2-(2′,6′-Difluoro-biphenyl-3-yl)-ethyl]-dimethyl-amine], for which the IC50 was 0.0208 µM.
Consider `CCCN(CCC)CCc1cccc(-c2ccccc2OC)c1` [Example 24, [2-(2′-Methoxy-biphenyl-3-yl)-ethyl]-dipropyl-amine], for which the IC50 was 0.0849 µM.
Compound `CNCCc1cccc(-c2c(Cl)cccc2OC)c1` [Example 39, [2-(6′-Chloro-2′-methoxy-biphenyl-3-yl)-ethyl]-methyl-amine] had an IC50 of 0.0088 µM.
Still for that read-out and setting: next, `CCCN(CCC)CCc1cccc(-c2c(C)cccc2C)c1` [Example 12, [2-(2′,6′-Dimethyl-biphenyl-3-yl)-ethyl]-dipropyl-amine]: 0.0426 ± 0.0211 µM; `COc1ccccc1-c1cccc(CCN(C)C)c1` [Example 21, [2-(2′-Methoxy-biphenyl-3-yl)-ethyl]-dimethyl-amine]: 0.0199 ± 0.0017 µM.
On the same count and under the same terms, the figure for `CNCCc1cccc(-c2cccnc2OC)c1` [Example 37, {2-[3-(2-Methoxy-pyridin-3-yl)-phenyl]-ethyl}-methyl-amine] is 0.157 µM; for `COc1cccc(Cl)c1-c1cccc(CCN(C)C)c1` [Example 38, [2-(6′-Chloro-2′-methoxy-biphenyl-3-yl)-ethyl]-dimethyl-amine] it is 0.024 ± 0.0023 µM; for `Cc1nn(C)c(C)c1-c1cccc(CCN(C)C)c1` [Example 1, Dimethyl-{2-[3-(1,3,5-trimethyl-1H-pyrazol-4-yl)-phenyl]-ethyl}-amine] it is 0.0061 ± 0.0007 µM.
`CCCN(CCC)CCc1cccc(-c2c(C)nn(C)c2C)c1` [Example 4, Dipropyl-{2-[3-(1,3,5-trimethyl-1H-pyrazol-4-yl)-phenyl]-ethyl}-amine] displayed an IC50 of 0.0569 ± 0.0179 µM.
`COc1cccc(OC)c1-c1cccc(CCN(C)C)c1` [Example 13, [2-(2′,6′-Dimethoxy-biphenyl-3-yl)-ethyl]-dimethyl-amine] yielded an IC50 of 0.0197 ± 0.0015 µM.
Same read-out and setting: next, `Cc1nn(C)c(C)c1-c1cccc(CCN)c1` [Example 29, 2-[3-(1,3,5-Trimethyl-1H-pyrazol-4-yl)-phenyl]-ethylamine]: 0.0045 ± 0.0015 µM.
Same read-out and setting: next, `CCN(CC)CCc1cccc(-c2c(C)cccc2C)c1` [Example 11, [2-(2′,6′-Dimethyl-biphenyl-3-yl)-ethyl]-diethyl-amine]: 0.0435 ± 0.0159 µM; `CCN(CC)CCc1cccc(-c2c(C)nn(C)c2C)c1` [Example 3, Diethyl-{2-[3-(1,3,5-trimethyl-1H-pyrazol-4-yl)-phenyl]-ethyl}-amine]: 0.0762 µM; `COc1cccc(OC)c1-c1cccc(CCN)c1` [Example 33, 2-(2′6′-Dimethoxy-biphenyl-3-yl)-ethylamine]: 0.122 µM.

The assay is the same for the next values; noted with them: [125I]LSD 0.82 nM, h5HT7 in CHO cells; read-out: 5-HT7 IC50.
Turning to `CCN(CC)CCc1cccc(-c2c(OC)cccc2OC)c1` [Example 15, [2-(2′,6′-Dimethoxy-biphenyl-3-yl)-ethyl]-diethyl-amine], the IC50 worked out at 0.302 µM.
For `CCN(CC)CCc1cccc(-c2ccccc2OC)c1` [Example 23, Diethyl-[2-(2′-methoxy-biphenyl-3-yl)-ethyl]-amine], the IC50 is 0.155 µM.
Take `Cc1n[nH]c(C)c1-c1cccc(CCN(C)C)c1` [Example 5, {2-[3-(3,5-Dimethyl-1H-pyrazol-4-yl)-phenyl]-ethyl}-dimethyl-amine]: the IC50 was found to be 0.129 ± 0.0168 µM.
Still for that read-out and setting: the figure for `CCCN(CCC)CCc1cccc(-c2c(C)noc2C)c1` [Example 28, {2-[3-(3,5-Dimethyl-isoxazol-4-yl)-phenyl]-ethyl}-dipropyl-amine] is 0.602 µM; for `CCN(CC)CCc1cccc(-c2cnn(C)c2)c1` [Example 19, Diethyl-{2-[3-(1-methyl-1H-pyrazol-4-yl)-phenyl]-ethyl}-amine] it is 0.753 µM; for `Cc1nn(C)c(C)c1-c1cccc(CCN2CCCC2)c1` [Example 42, 1,3,5-Trimethyl-4-[3-(2-pyrrolidin-1-yl-ethyl)-phenyl]-1H-pyrazole] it is 0.139 ± 0.0007 µM.
In the case of `Cc1noc(C)c1-c1cccc(CCN(C)C)c1` [Example 25, {2-[3-(3,5-Dimethyl-isoxazol-4-yl)-phenyl]-ethyl}-dimethyl-amine], the IC50 is 0.802 ± 0.159 µM.
Turning to `CCCN(CCC)CCc1cccc(-c2c(OC)cccc2OC)c1` [Example 16, [2-(2′,6′-Dimethoxy-biphenyl-3-yl)-ethyl]-dipropyl-amine], the IC50 was determined as 0.118 ± 0.0459 µM.

In a further assay the target is 5HT7 receptor (Homo sapiens, UniProt P34969). The assay can be described thus: Functionality assay on the 5HT7 receptor. The format is biochemical.
5HT7 receptor, sequence (P34969 whole entry): as above
Conditions: not given
The text has this:
Functionality assay on the 5HT7 receptor were done according to those known in the state of the art.
In general, EC50 refers to the midpoint of the concentration-response curve. Higher therefore signals lower potency in that assay. Broadly, the Emax is the size of the effect at its maximum, as opposed to the concentration needed. `Cc1nn(C)c(C)c1-c1cccc(CCN(C)C)c1` [Example 1, Dimethyl-{2-[3-(1,3,5-trimethyl-1H-pyrazol-4-yl)-phenyl]-ethyl}-amine] showed an EC50 of 0.0255 ± 0.002 µM and an Emax of 94%.

For a further assay, the system named is 5-HT1. The assay can be described thus: 5-HT1 IC50. Format: binding.
Conditions: not given
`Cc1nn(C)c(C)c1-c1cccc(CCN(C)C)c1` [Example 1, Dimethyl-{2-[3-(1,3,5-trimethyl-1H-pyrazol-4-yl)-phenyl]-ethyl}-amine] showed a half-inhibitory concentration (IC50) greater than 1 µM.
